Holding throughout (assay type): cell-based
One experiment deals with T1, TYK2 (Homo sapiens, UniProt P29597, E957D).
T1 construct: host or cells: Ba/F3 (murine B lymphocytes)
The experiment is described as follows: TYK2 kinase activity inhibition assay (Ba/F3-FL-TYK2-E957D cell proliferation, CellTiter-Glo). Conditions: 72 h. As for the experimental part:
The TYK2 kinase gene was introduced into wild-type murine-derived B lymphocytes (BaF3) to construct the Ba/F3-FL-TYK2-E957D stable cell line.
In this experiment, the inhibitory effect of the compounds on the proliferation of Ba/F3-FL-TYK2-E957D cells were tested, apoptosis was detected, and the IC50 value was calculated. The inhibitory activity of the compounds against TYK2 kinase was evaluated based on the IC50 value.
(§1) The tested compounds, powder and stored at room temperature, were prepared into 10 mM stock solution with DMSO and stored at −20° C. away from light for use.
Compounds were prepared into dilute solutions which was 1000 times of the final concentration. The compound was prepared into 20-times of the final concentration by diluting the compound with culture medium. 2 ul of 1000-times compound was added to per well to 98 ul of culture medium.
Cells (provided by Sundia Pharmaceutical Technology (Shanghai) Co., Ltd.) were resuspended and counted using an automated cell counter. The cell suspension was diluted to the desired density based on BaF3 seeding density of 2000 cells per well. Each well was plated with 95 ul of cells and incubated at 37° C. for stable equilibrium. 5 ul of 20-times compound was added to each well, with the wells to which the same volume of DMSO was added as a control.
The cell plate was equilibrated to room temperature. 40 ul CellTiter-Glo® Reagent was added to each well, shaken for 2 minutes and allowed to stand for 10 minutes. Detected with SpectraMax Paradigm.
• (1) IC50 was calculated using GraphPad Prism 5. • (2) % Inh=(Max signal−Compound signal)/(Max signal−Min signal)×100. • (3) Max signal was the positive control well with only the same volume of DMSO as the compound. • (4) Min signal was the negative control well with only the culture medium.

The target of the next experiment is T2, JAK1 (Homo sapiens, UniProt P23458, cells depend on it, form not given).
T2 construct: fused on or other part: N-terminal part of TEL (ETV6) as oligomerising partner; P41212 (Transcription factor ETV6)
T2 sequence (P23458 875-1154 limits assumed, change not shown): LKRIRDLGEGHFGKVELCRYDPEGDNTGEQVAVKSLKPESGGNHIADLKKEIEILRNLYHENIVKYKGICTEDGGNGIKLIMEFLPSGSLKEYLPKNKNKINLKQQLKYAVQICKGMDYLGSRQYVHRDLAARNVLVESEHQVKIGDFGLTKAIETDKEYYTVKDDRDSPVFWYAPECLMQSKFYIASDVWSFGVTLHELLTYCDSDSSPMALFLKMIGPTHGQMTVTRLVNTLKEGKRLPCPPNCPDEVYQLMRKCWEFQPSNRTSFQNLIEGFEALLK
The experiment is described as follows: JAK family kinase selectivity assay, Ba/F3-TEL-JAK1 cell proliferation. Conditions: Ba/F3-TEL-JAK1, 72 h; read-out: Ba/F3 Cell IC50 JAK1. The source says: (§2) There are four kinases in the JAK family, respectively TYK2, JAK1, JAK2 and JAK3. JAK family kinase genes were introduced into the wild-type murine B lymphocytes (BaF3), and four BaF3 engineered cell lines were constructed respectively (Ba/F3-FL-TYK2-E957D, Ba/F3-TEL-JAK1, Ba/F3-TEL-JAK2, Ba/F3-TEL-JAK3). The growth and proliferation of these engineered cell lines were not dependent on IL-3, but on exogenously transferred JAK family kinases.
In this experiment, the inhibitory effects of the compounds on the proliferation of four cell types, Ba/F3-FL-TYK2-E957D, Ba/F3-TEL-JAK1, Ba/F3-TEL-JAK2, and Ba/F3-TEL-JAK3 were tested, and apoptosis was detected, and the IC50 values were calculated. The inhibitory activities of the compounds against TYK2, JAK1, JAK2, and JAK3 kinases were evaluated based on the IC50 value, thus assessing the JAK family kinase selectivity of the compounds. […]
Cells (provided by Sundia Pharmaceutical Technology (Shanghai) Co., Ltd.) were resuspended and counted using an automated cell counter. […]
(§3) The cell plate was equilibrated to room temperature. […] Detected with SpectraMax Paradigm.
(§4) • (1) IC50 was calculated using GraphPad Prism 5. • (2) % Inh=(Max signal-Compound signal)/(Max signal-Min signal)×100. • (3) Max signal was the positive control well with only the same volume of DMSO as the compound. • (4) Min signal was the negative control well with only the culture medium.

Experiment [1] concerns IFN-α-induced STAT phosphorylation. The experiment is described as follows: IFN-α-induced STAT phosphorylation in human whole blood. The conditions noted are these: for higher anti-inflammatory activity compared to the control BMS-986165: IFN-α-induced STAT phosphorylation in human whole blood, relative to BMS-986165; for IC50: human whole blood, 20 ng/ml IFN-α, pSTAT5 in CD3-positive cells, read-out: IC50, IFN-α inflammatory pathway (IFN-α-induced STAT phosphorylation). The source says: The cytokine receptor attached to TYK2 mediates the signaling of type 1 interferon (IFN-α), which has been identified as the most important inflammatory factor of the autoimmune system. Human whole blood is induced with IFN-α, and TYK2 from lymphocytes in whole blood triggered STAT phosphorylation, which mediated subsequent inflammatory signaling. Therefore, TYK2 inhibitors have an inhibitory effect on IFN-α signaling, and the stronger the TYK2 inhibitory activity, the lower the level of STAT phosphorylation, and the stronger the corresponding anti-inflammatory effect.
In this experiment, the ability of the compounds to inhibit IFN-α-induced STAT phosphorylation in human whole blood were tested, and the IC50 values were calculated. The anti-inflammatory activity of the compounds was evaluated at the tissue level and evaluation of the inhibitory activity of compounds on the IFN-α inflammatory pathway based on the IC50 value.
The tested compound, powder and stored at room temperature, prepared into 10 mM stock solution with DMSO and stored at −80° C. in the refrigerator.
1× Fix/Lysis solution preparation: 5× Fix/Lysis and ddH2O were diluted according to 1:4 and preheated in 37° C. incubator, waiting for use.
Flow cytometric staining buffer preparation: 1 g of bovine serum albumin (BSA) and 1 mL of EDTA (0.5 M) solution were added to 500 mL of phosphate buffer solution (PBS) and stored at 4° C. in the refrigerator.
Compound dilution solution: 0.5 g of bovine serum albumin (BSA) was added to 500 mL of phosphate buffer solution (PBS), and stored at 4° C. in the refrigerator.
50 μg/mL IFN-alpha was diluted to 400 ng/mL with Compound Diluent and set aside.
67.5 μL of human whole blood was added to a 96-well plate using a 300 μL electric volley gun. 3.5 μL of prepared test compound was added, mixed well and placed in the cell culture incubator. After 60 min incubation, 400 ng/mL IFN-α (Biolegend 592702, final concentration 20 ng/ml) was added. The obtained was mixed well and placed in the cell culture incubator to continue incubation for 15 min.
After cytokine stimulation, 5 ul of PE-CD3 (BD 555333) antibody was added to each well, mixed and incubation was continued at 4° C. in the refrigerator. At the end, whole blood was transferred to a 96-well deep-well plate using a volley gun, pre-warmed 1× Fix/Lysis solution was added, and cells were lysed and fixed for 12 minutes at 37° C. in an incubator. After being washed, 400 μL of Perm III solution was added, vortexed and incubated on ice for 30 minutes. Cells were then stained by 100 μL of APC-pSTAT5 (1:100) antibody for 50 min at room temperature. This was followed by flow-through instrumentation. The expression of pSTAT5 was quantified by median fluorescence intensity after gating the CD3-positive signaling cluster.

A further experiment concerns the target T3, JAK2 (Homo sapiens, UniProt O60674, cells depend on it, form not given).
T3 construct: fused on or other part: N-terminal part of TEL (ETV6) as oligomerising partner; it is the second protein of the fusion and part of the key; P41212 (Transcription factor ETV6)
Description: JAK family kinase selectivity assay, Ba/F3-TEL-JAK2 cell proliferation. Conditions: Ba/F3-TEL-JAK2, 72 h; read-out: Ba/F3 Cell IC50 JAK2.
Source text: as §2
In this experiment, the inhibitory effects of the compounds on the proliferation of four cell types, Ba/F3-FL-TYK2-E957D, Ba/F3-TEL-JAK1, Ba/F3-TEL-JAK2, and Ba/F3-TEL-JAK3 were tested, and apoptosis was detected, and the IC50 values were calculated. The inhibitory activities of the compounds against TYK2, JAK1, JAK2, and JAK3 kinases were evaluated based on the IC50 value, thus assessing the JAK family kinase selectivity of the compounds.
as §1
Compounds were formulated into dilute solutions which was 1000 times of the final concentration. The compound was prepared into 20-times of final concentration by diluting the compound with culture medium. 2 ul of 1000-times compound was added per well to 98 ul of culture medium.
Cells (provided by Sundia Pharmaceutical Technology (Shanghai) Co., Ltd.) were resuspended and counted using an automated cell counter. The cell suspension was diluted to the desired density based on BaF3 seeding density of 2000 cells per well. Each well was plated with 95 ul of cells and incubated at 37° C. for stable equilibrium. […]
as §3, §4

T3 sequence (O60674 849-1132 limits assumed, change not shown): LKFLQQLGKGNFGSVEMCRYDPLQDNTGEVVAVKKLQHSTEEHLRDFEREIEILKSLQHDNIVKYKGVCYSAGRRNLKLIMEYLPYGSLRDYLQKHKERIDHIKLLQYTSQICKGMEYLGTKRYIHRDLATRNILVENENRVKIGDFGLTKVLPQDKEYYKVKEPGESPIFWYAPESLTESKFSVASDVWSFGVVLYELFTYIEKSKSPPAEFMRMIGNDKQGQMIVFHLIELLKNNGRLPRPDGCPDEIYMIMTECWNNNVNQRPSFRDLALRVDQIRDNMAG
T1 sequence (P29597 whole entry E957D): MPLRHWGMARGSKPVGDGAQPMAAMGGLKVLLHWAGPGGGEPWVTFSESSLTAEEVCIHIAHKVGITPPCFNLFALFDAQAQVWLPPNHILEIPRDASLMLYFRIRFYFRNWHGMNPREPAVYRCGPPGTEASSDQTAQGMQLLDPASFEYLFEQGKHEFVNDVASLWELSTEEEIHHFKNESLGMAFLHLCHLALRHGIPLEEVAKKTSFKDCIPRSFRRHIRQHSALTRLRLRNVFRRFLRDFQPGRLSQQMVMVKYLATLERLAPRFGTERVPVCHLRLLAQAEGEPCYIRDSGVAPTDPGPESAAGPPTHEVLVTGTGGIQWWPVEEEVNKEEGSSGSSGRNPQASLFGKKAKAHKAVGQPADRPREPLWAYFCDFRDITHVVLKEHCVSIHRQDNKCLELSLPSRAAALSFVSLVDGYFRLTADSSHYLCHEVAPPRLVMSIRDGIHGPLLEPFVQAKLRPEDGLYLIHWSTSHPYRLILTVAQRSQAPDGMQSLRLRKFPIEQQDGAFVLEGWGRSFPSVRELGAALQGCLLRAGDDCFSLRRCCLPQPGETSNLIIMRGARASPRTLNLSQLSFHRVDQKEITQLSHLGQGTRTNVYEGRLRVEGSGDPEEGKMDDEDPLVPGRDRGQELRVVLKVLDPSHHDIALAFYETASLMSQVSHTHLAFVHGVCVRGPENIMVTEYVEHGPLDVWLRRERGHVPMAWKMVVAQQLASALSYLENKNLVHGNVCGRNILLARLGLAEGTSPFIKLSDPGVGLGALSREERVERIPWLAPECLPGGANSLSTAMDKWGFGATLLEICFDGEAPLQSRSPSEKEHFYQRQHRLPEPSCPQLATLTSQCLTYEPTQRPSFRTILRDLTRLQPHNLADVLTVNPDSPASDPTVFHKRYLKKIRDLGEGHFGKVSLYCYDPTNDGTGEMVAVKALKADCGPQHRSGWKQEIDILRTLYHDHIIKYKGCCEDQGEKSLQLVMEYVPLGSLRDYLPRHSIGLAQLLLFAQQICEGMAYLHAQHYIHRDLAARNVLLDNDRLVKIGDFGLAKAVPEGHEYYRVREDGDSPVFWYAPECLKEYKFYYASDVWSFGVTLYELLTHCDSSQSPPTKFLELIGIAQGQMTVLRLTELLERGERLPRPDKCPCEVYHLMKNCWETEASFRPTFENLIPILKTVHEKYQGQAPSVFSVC

Turning to `[2H]C([2H])([2H])NC(=O)c1nnc(NC(=O)C2CC2)cc1Nc1nc(N)c(Cl)cc1[S@@](C)(=O)=NC` [Example 28], the IC50 was 0.6 nM on TYK2 and 4 nM in experiment [1]. Moreover, the GI50 on JAK1 and at JAK2 was over 1000 nM each time. Also, the “higher anti-inflammatory activity compared to the control BMS-986165” value in experiment [1] is recorded as “about 6 fold”.

As to `[2H]C([2H])([2H])NC(=O)c1nnc(NC(=O)C2CC2)cc1Nc1nc(N)c(Cl)cc1[S@](C)(=N)=O` [Example 29, (R)-4-((6-amino-5-chloro-3-(S-methylsulfoximino)pyridin-2-yl)amino)-6-(cyclopropylcarboxamido)-N-(methyl-d3)pyridazine-3-carboxamide], the IC50 on TYK2 came out at 1.1 nM; in experiment [1], 3.7 nM. For the same compound, the GI50 on JAK1 and on JAK2 was over 1000 nM each time. Moreover, the “higher anti-inflammatory activity compared to the control BMS-986165” value in experiment [1] is “about 6 fold”.

The record behind these values is patent publication US20250179022A1, “COMPOUND USED AS TYK2 INHIBITOR, PREPARATION METHOD THEREFOR, AND PHARMACEUTICAL USE THEREOF” (SHANGHAI ZHIGEN PHARMACEUTICAL & TECHNOLOGY CO. LTD., priority 2022, published 2025).
